Read-outs that look alike come from different tables or passages of the source.
Columns and labels:
[1] = tested on: Salmonella enterica ATCC 10708; assay: BCT test (bacterial contact time), 60 s, log reduction / effect fraction; CI by Compusyn; assay type: cell-based; details: Salmonella enterica, ATCC10708, 1 min, BCT 60 s, in 25% EtOH; for log reduction at 0.04 % strength: Dose 0.04 % w/v; for log reduction at 0.05 % strength: Dose 0.05 % w/v; for log reduction at 0.06 % strength: Dose 0.06 % w/v
Summary of the method: (§1)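 Read-out: log CFU from turbidity (OD600) of serially diluted wells after 37° C, 180 rpm growth; log reduction relative to ethanol-only control. Cells at ~1×10^8/mL met ethanolic test compositions 1:1 for the listed contact time. CI from concentrations and effect fractions; <0.9 synergy, 0.9–1.0 additive, >1.0 antagonism.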

[2] = tested on: Pseudomonas aeruginosa ATCC 15442; assay: as above; assay type: cell-based; details: Pseudomonas aeruginosa, ATCC15442, 1 min, BCT 60 s, in 25% EtOH; for log reduction at 0.05 % strength: Dose 0.05 % w/v; for log reduction at 0.1 % strength: Dose 0.1 % w/v
Summary of the method: as §1

[3] = tested on: S. haemolyticus 114126; assay: BCT test (bacterial contact time), 120 s, log reduction / effect fraction; CI by Compusyn; assay type: cell-based; details: Staphylococcus haemolyticus, 114126, 2 min, contact 120 s, 25% EtOH; for log reduction at 0.1 % strength: dose 0.1% w/v; for log reduction at 0.125 % strength: dose 0.125% w/v; for log reduction at 0.15 % strength: dose 0.15% w/v; for log reduction at 0.175 % strength: dose 0.175% w/v; for log reduction at 0.2 % strength: dose 0.2% w/v
Summary of the method: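 S. haemolyticus 114126 (skin isolate), grown to OD600 1-2 in BHI-TW80 and resuspended at 1-5×10^8 CFU/mL, was mixed 1:1 with ethanolic perfume compositions or ethanol alone for 45, 60 or 120 s. Viable counts came from serial-dilution regrowth (37 °C, turbidity OD600), giving log reduction versus ethanol control; CI was computed from concentration–effect fraction pairs.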

[4] = tested on: C. xerosis ATCC 373; assay: as above; assay type: cell-based; details: Corynebacterium xerosis, ATCC373, 2 min, contact 120 s, 25% EtOH; for log reduction at 0.1 % strength: dose 0.1% w/v; for log reduction at 0.25 % strength: dose 0.25% w/v; for log reduction at 0.3 % strength: dose 0.3% w/v
Summary of the method: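 C. xerosis cells grown in BHI-TW80 at 37 °C to OD600 1.6 were exposed to ethanolic perfume compositions for 120 s. Viable counts (log CFU) came from serial dilution and OD600 growth after 37 °C incubation, giving log reduction versus ethanol control. CI was computed from concentrations and effect fractions, with <0.9 taken as synergy.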

[5] = tested on: S. aureus ATCC 6538; assay: BCT test (bacterial contact time), 60 s, log reduction / effect fraction; CI by Compusyn; assay type: cell-based, Staphylococcus aureus; details: Staphylococcus aureus, ATCC6538, 1 min, 60 s, in 25% EtOH; for log reduction at 0.075 % strength: dose 0.075 % w/v; for log reduction at 0.1 % strength: dose 0.100 % w/v; for log reduction at 0.125 % strength: dose 0.125 % w/v; for log reduction at 0.15 % strength: dose 0.150 % w/v
Summary of the method: as §1

[6] = dose 0.4% w/v, read-out: Log reduction

C=C(C)[C@@H]1CC=C(CO)CC1 [Perycorolle, (S)-(−)-(4-Isopropenyl-1-cyclohexenyl)methanol]
log reduction at 0.04 % strength [1]: 0 | log reduction at 0.05 % strength ([1]; read-out: Log reduction): 0.3 | log reduction at 0.06 % strength [1]: 0.9 | log reduction at 0.07 % strength ([1]; Dose 0.07 % w/v): 2.2 | log reduction at 0.08 % strength ([1]; Dose 0.080 % w/v): 5.2 | log reduction at 0.05 % strength [2]: 1.8 | log reduction at 0.06 % strength ([2]; Dose 0.06 % w/v): 3.7 | log reduction at 0.07 % strength ([2]; Dose 0.07 % w/v): 5.1 | log reduction at 0.08 % strength ([2]; Dose 0.08 % w/v): 7.1 | log reduction at 0.1 % strength [2]: 7.5 | log reduction at 0.1 % strength [3]: -0.2 | log reduction at 0.125 % strength [3]: 0.4 | log reduction at 0.15 % strength [3]: 1.9 | log reduction at 0.175 % strength ([3]; read-out: Log reduction): 6.4 | log reduction at 0.2 % strength [3]: 7.2 | log reduction at 0.1 % strength [4]: 0.2 | log reduction at 0.15 % strength ([4]; dose 0.15% w/v): 3.4 | log reduction at 0.2 % strength ([4]; dose 0.2% w/v, read-out: Log reduction): 4.8 | log reduction at 0.25 % strength ([4]; read-out: Log reduction): 6.5 | log reduction at 0.3 % strength ([4]; read-out: Log reduction): 6.4 | log reduction at 0.05 % strength ([5]; dose 0.050 % w/v): 0.2 | log reduction at 0.075 % strength [5]: 1.6 | log reduction at 0.1 % strength [5]: 5.1 | log reduction at 0.125 % strength [5]: 7.3 | log reduction at 0.15 % strength ([5]; read-out: Log reduction): 7.3

CC(C)=CCC/C(C)=C\CO [Nerol, (Z)-3,7-dimethyl-2,6-octadien-1-ol]
log reduction at 0.01 % strength ([1]; Dose 0.01 % w/v): 0 | log reduction at 0.03 % strength ([1]; Dose 0.03 % w/v): 0.7 | log reduction at 0.04 % strength [1]: 2.2 | log reduction at 0.05 % strength ([1]; read-out: Log reduction): 5.6 | log reduction at 0.06 % strength [1]: 7.3 | log reduction at 0.025 % strength ([2]; Dose 0.025 % w/v): 0.4 | log reduction at 0.05 % strength [2]: 3.6 | log reduction at 0.0625 % strength ([2]; Dose 0.0625 % w/v): 5.6 | log reduction at 0.075 % strength ([2]; Dose 0.075 % w/v): 7.4 | log reduction at 0.1 % strength [2]: 7.4 | log reduction at 0.05 % strength ([3]; dose 0.05% w/v): 0.1 | log reduction at 0.1 % strength [3]: 1.4 | log reduction at 0.125 % strength [3]: 4 | log reduction at 0.15 % strength [3]: 6.2 | log reduction at 0.175 % strength ([3]; read-out: Log reduction): 7.4 | log reduction at 0.08 % strength ([4]; dose 0.08% w/v): -0.1 | log reduction at 0.1 % strength [4]: 0.5 | log reduction at 0.12 % strength ([4]; dose 0.12% w/v): 2.6 | log reduction at 0.14 % strength ([4]; dose 0.14% w/v): 4.9 | log reduction at 0.16 % strength ([4]; dose 0.16% w/v): 7.2 | log reduction at 0.0625 % strength ([5]; dose 0.0625 % w/v): 1.3 | log reduction at 0.075 % strength [5]: 3.2 | log reduction at 0.1 % strength [5]: 7 | log reduction at 0.125 % strength [5]: 7.3 | log reduction at 0.15 % strength ([5]; read-out: Log reduction): 7.5

C/C=C/c1ccc(O)c(OC)c1 [Isoeugenol, 2-Methoxy-4-(prop-1-en-1-yl)phenol]
log reduction at 0.05 % strength ([1]; read-out: Log reduction): -0.1 | log reduction at 0.06 % strength [1]: 0 | log reduction at 0.075 % strength ([1]; Dose 0.075 % w/v): 4 | log reduction at 0.08 % strength ([1]; Dose 0.08 % w/v): 4 | log reduction at 0.08 % strength ([1]; Dose 0.080 % w/v): 0.8 | log reduction at 0.1 % strength ([1]; Dose 0.1 % w/v, read-out: Log reduction): 2.6 | log reduction at 0.1 % strength ([1]; Dose 0.10 % w/v, read-out: Log reduction): 6.9 | log reduction at 0.11 % strength ([1]; Dose 0.110 % w/v): 7.5 | log reduction at 0.12 % strength ([1]; Dose 0.120 % w/v, read-out: Log reduction): 7.2 | log reduction at 0.125 % strength ([2]; Dose 0.125 % w/v): 7.5 | log reduction at 0.15 % strength ([2]; Dose 0.15 % w/v): 7.5 | log reduction at 0.15 % strength [3]: -0.3 | log reduction at 0.2 % strength [3]: 0.5 | log reduction at 0.25 % strength ([3]; dose 0.25% w/v, read-out: Log reduction): 2.2 | log reduction at 0.3 % strength ([3]; dose 0.3% w/v, read-out: Log reduction): 3.7 | log reduction at 0.35 % strength ([3]; dose 0.35% w/v): 5.6 | log reduction at 0.4 % strength [3, 6]: 7.2 | log reduction at 0.25 % strength ([4]; read-out: Log reduction): 2.4 | log reduction at 0.3 % strength ([4]; read-out: Log reduction): 3.4 | log reduction at 0.4 % strength [4, 6]: 5 | log reduction at 0.5 % strength ([4]; dose 0.5% w/v): 6.3 | log reduction at 0.6 % strength ([4]; dose 0.6% w/v): 6.6 | log reduction at 0.1 % strength [5]: 1.1 | log reduction at 0.125 % strength [5]: 3.7 | log reduction at 0.15 % strength ([5]; read-out: Log reduction): 5.6 | log reduction at 0.2 % strength ([5]; dose 0.200 % w/v, read-out: Log reduction): 7.5
